Data on 19 compounds can be found in patent US20260265233A1, “BENZOTHIOPHENE DERIVATIVES AS RXFP1 AGONISTS” (BRISTOL-MYERS SQUIBB COMPANY, priority 2021, published 2026).

The structures appear in SMILES notation.

The test addresses T1, human RXFP1 (Homo sapiens, UniProt Q9HBX9).
T1 construct: expressed in transfected cells
T1 sequence (Q9HBX9 1-757): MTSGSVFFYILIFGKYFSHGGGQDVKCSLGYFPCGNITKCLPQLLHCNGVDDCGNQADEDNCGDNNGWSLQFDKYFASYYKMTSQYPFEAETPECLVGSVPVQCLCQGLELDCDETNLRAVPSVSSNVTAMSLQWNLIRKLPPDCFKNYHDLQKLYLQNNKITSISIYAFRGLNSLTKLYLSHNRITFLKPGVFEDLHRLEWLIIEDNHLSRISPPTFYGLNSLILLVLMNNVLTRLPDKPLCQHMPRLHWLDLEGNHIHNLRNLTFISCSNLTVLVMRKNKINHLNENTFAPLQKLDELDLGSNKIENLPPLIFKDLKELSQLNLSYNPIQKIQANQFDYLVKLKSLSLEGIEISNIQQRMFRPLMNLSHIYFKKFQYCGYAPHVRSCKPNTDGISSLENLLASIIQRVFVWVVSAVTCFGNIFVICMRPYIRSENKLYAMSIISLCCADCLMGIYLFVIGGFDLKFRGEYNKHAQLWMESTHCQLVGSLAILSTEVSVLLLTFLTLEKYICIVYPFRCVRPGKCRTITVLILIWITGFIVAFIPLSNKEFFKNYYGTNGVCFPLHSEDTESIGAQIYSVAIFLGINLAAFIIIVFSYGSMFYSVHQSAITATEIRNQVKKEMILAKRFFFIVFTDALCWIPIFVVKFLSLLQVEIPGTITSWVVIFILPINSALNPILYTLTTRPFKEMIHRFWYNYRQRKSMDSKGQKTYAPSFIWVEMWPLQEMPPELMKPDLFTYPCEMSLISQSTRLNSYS
Description: hRXFP1 HEK293 cAMP assay (HTRF). In kind it is cell-based. Particulars: HEK293 cells stably expressing human RXFP1; 30 min at rt; intracellular cAMP by HTRF. The method, boiled down:
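Agonism is measured as cAMP by HTRF, quantified from a standard curve via the 665/590 nm ratio and fitted with a four-parameter logistic equation. Compounds (0.010 nM to 50 μM final, 2% DMSO) were applied for 30 min at rt to human RXFP1-expressing HEK293 cells in assay buffer containing 0.5 mM IBMX.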
Background: Cyclic AMP is a second messenger, typically raised through Gs and lowered through Gi signalling.

As a reminder, the EC50 is the concentration that produces a half-maximal response. Low values mean higher potency in that assay, high ones lower potency in that assay. `COc1ccc(N2CCCC(C(C)(C)O)C2)cc1C(=O)Nc1c(C(=O)Nc2ccc(F)c(C(F)(F)F)c2)sc2cc(C(F)(F)F)ccc12` (single isomer, unassigned) [Example 108, N-(4-fluoro-3-(trifluoromethyl)phenyl)-3-(5-(3-(2-hydroxypropan-2-yl)piperidin-1-yl)-2-methoxy-benzamido)-6-(trifluoromethyl) benzo[b] thiophene-2-carboxamide] had an EC50 of 1.43 µM. In turn, `COc1ccc(C2CCCN(C(=O)C(C)(C)CO)C2)cc1C(=O)Nc1c(C(=O)Nc2ccc(F)c(C(F)(F)F)c2)sc2cc(C(F)(F)F)ccc12` (single isomer, unassigned) [Example 105, N-[4-fluoro-3-(trifluoromethyl)phenyl]-3-{5-[1-(3-hydroxy-2,2-dimethyl-propanoyl)piperidin-3-yl]-2-methoxy-benzamido}-6-(trifluoromethyl)-1-benzothiophene-2-carboxamide] returned an EC50 of 0.149 µM.

Regarding `COc1ccc(C2=NOC3(CCNCC3)C2)cc1C(=O)Nc1c(C(=O)Nc2ccc(F)c(C(F)(F)F)c2)sc2cc(C(F)(F)F)ccc12` [Example 272, N-(4-fluoro-3-(trifluoromethyl)phenyl)-3-(2-methoxy-5-(1-oxa-2,8-diazaspiro[4.5]dec-2-en-3-yl)benzamido)-6-(trifluoromethyl) benzo[b] thiophene-2-carboxamide], the EC50 stood at 0.9 µM. The compound `COc1ccc(-c2cccc(S(=O)(=O)N(C)C)c2)cc1C(=O)Nc1c(C(=O)Nc2ccc(F)c(C(F)(F)F)c2)sc2cc(C(F)(F)F)ccc12` [Example 119, 3-(3′-(N,N-dimethyl-sulfamoyl)-4-methoxy-[1,1′-biphenyl]-3-carboxamido)-N-(4-fluoro-3-(trifluoromethyl)phenyl)-6-(trifluoromethyl) benzo[b] thiophene-2-carboxamide] returned an EC50 of 0.282 µM. The compound `COc1ccc(N2CCCC(C(=O)NCCO)C2)cc1C(=O)Nc1c(C(=O)Nc2ccc(F)c(C(F)(F)F)c2)sc2cc(C(F)(F)F)ccc12` (single isomer, unassigned) [Example 230, 1-(3-((2-((4-fluoro-3-(trifluoromethyl)phenyl)carbamoyl)-6-(trifluoromethyl)benzo[b]thiophen-3-yl)carbamoyl)-4-methoxyphenyl)-N-(2-hydroxyethyl) piperidine-3-carboxamide] gave an EC50 of 1.4 µM. On to `COc1ccc(C2=NOC3CC(NC(=O)C(C)(C)O)CC23)cc1C(=O)Nc1c(C(=O)Nc2ccc(F)c(C(F)(F)F)c2)sc2cc(C(F)(F)F)ccc12` (stereo not shown) [Example 260, N-[4-fluoro-3-(trifluoromethyl)phenyl]-3-{5-[5-(2-hydroxy-2-methyl-propanamido)-3aH,4H,5H,6H, 6aH-cyclopenta[d] [1,2]oxazol-3-yl]-2-methoxy-benzamido}-6-(trifluoromethyl)-1-benzothiophene-2-carboxamide], for which a half-maximal response (EC50) required 1.31 µM. Compound `COc1ncc(N2CC3(COC3)C2)cc1C(=O)Nc1c(C(=O)Nc2ccc(F)c(C(F)(F)F)c2)sc2cc(C(F)(F)F)ccc12` [Example 233, N-(2-((4-fluoro-3-(trifluoromethyl)phenyl)carbamoyl)-6-(trifluoromethyl)benzo[b]thiophen-3-yl)-2-methoxy-5-(2-oxa-6-azaspiro[3.3]heptan-6-yl)nicotinamide] had an EC50 of 4.65 µM. As for `COc1ccc(N2CCOC(CC(C)(C)O)C2)cc1C(=O)Nc1c(C(=O)Nc2ccc(F)c(C(F)(F)F)c2)sc2cc(C(F)(F)F)ccc12` (single isomer, unassigned) [Example 227, N-(4-fluoro-3-(trifluoromethyl)phenyl)-3-(5-(2-(2-hydroxy-2-methylpropyl)morpholino)-2-methoxy-benzamido)-6-(trifluoromethyl) benzo[b] thiophene-2-carboxamide], the figure is 1.28 µM. Turning to `COc1ccc(C2=NOC3(CNC3)C2)cc1C(=O)Nc1c(C(=O)Nc2ccc(F)c(C(F)(F)F)c2)sc2cc(C(F)(F)F)ccc12` [Example 286, N-(4-fluoro-3-(trifluoromethyl)phenyl)-3-(2-methoxy-5-(5-oxa-2,6-diazaspiro[3.4]oct-6-en-7-yl)benzamido)-6-(trifluoromethyl) benzo[b] thiophene-2-carboxamide], the response was half-maximal at 5 µM (EC50). The result for `COc1ccc(C2=NOC3(C2)CN(C(=O)C(C)(C)O)C3)cc1C(=O)Nc1c(C(=O)Nc2ccc(F)c(C(F)(F)F)c2)sc2cc(C(F)(F)F)ccc12` [Example 284, N-(4-fluoro-3-(trifluoromethyl)phenyl)-3-(5-(2-(2-hydroxy-2-methylpropanoyl)-5-oxa-2,6-diazaspiro[3.4]oct-6-en-7-yl)-2-methoxy-benzamido)-6-(trifluoromethyl) benzo[b] thiophene-2-carboxamide] reads 1.3 µM; that for `COc1ccc(C2CC2C(=O)N2CC(C(C)(C)O)C2)cc1C(=O)Nc1c(C(=O)Nc2ccc(F)c(C(F)(F)F)c2)sc2cc(C(F)(F)F)ccc12` (stereo not shown) [Example 169, N-[4-fluoro-3-(trifluoromethyl)phenyl]-3-(5-{2-[3-(2-hydroxypropan-2-yl)azetidine-1-carbonyl]cyclopropyl}-2-methoxy-benzamido)-6-(trifluoromethyl)-1-benzothiophene-2-carboxamide], 2.25 µM; that for `COc1ccc(C2CCC(C)(O)CC2)cc1C(=O)Nc1c(C(=O)Nc2ccc(F)c(C(F)(F)F)c2)sc2cc(C(F)(F)F)ccc12` (single isomer, unassigned) [Example 38, N-(4-fluoro-3-(trifluoromethyl)phenyl)-3-(5-(4-hydroxy-4-methylcyclohexyl)-2-methoxybenzamido)-6-(trifluoromethyl)benzo[b]thiophene-2-carboxamide], 0.194 µM. On to `COc1ccc(C(=O)N2CC[C@H](O)C2)cc1C(=O)Nc1c(C(=O)Nc2ccc(F)c(C(F)(F)F)c2)sc2cc(C(F)(F)F)ccc12` [Example 174, (S)-N-(4-fluoro-3-(trifluoromethyl)phenyl)-3-(5-(3-hydroxy-pyrrolidine-1-carbonyl)-2-methoxy-benzamido)-6-(trifluoromethyl) benzo[b] thiophene-2-carboxamide], for which the concentration for a half-maximal effect (EC50) worked out at 0.405 µM. Compound `COc1ccc(S(=O)(=O)N2CCC(C(C)(C)O)CC2)cc1C(=O)Nc1c(C(=O)Nc2ccc(F)c(C(F)(F)F)c2)sc2cc(C(F)(F)F)ccc12` [Example 225, N-(4-fluoro-3-(trifluoromethyl)phenyl)-3-(5-((4-(2-hydroxypropan-2-yl)piperidin-1-yl)sulfonyl)-2-methoxy-benzamido)-6-(trifluoromethyl) benzo[b] thiophene-2-carboxamide] yielded an EC50 of 1.06 µM. Compound `COc1ccc(C2CCC(O)CC2)cc1C(=O)Nc1c(C(=O)Nc2ccc(F)c(C(F)(F)F)c2)sc2cc(C(F)(F)F)ccc12` (single isomer, unassigned) [Example 75, N-(4-fluoro-3-(trifluoromethyl)phenyl)-3-(5-(4-hydroxycyclo-hexyl)-2-methoxy-benzamido)-6-(trifluoromethyl) benzo[b] thiophene-2-carboxamide] displayed an EC50 of 0.42 µM. In turn, `COc1ccc(C(=O)N2CC(C(C)(C)O)C2)cc1C(=O)Nc1c(C(=O)Nc2ccc(F)c(C(F)(F)F)c2)sc2cc(C(F)(F)F)ccc12` [Example 179, N-(4-fluoro-3-(trifluoromethyl)phenyl)-3-(5-(3-(2-hydroxypropan-2-yl)azetidine-1-carbonyl)-2-methoxy-benzamido)-6-(trifluoromethyl) benzo[b] thiophene-2-carboxamide] showed an EC50 of 0.179 µM.

`COc1ccc(CCCO)cc1C(=O)Nc1c(C(=O)Nc2ccc(F)c(C(F)(F)F)c2)sc2cc(Cl)ncc12` [Example 200, 6-chloro-N-(4-fluoro-3-(trifluoromethyl)phenyl)-3-(5-(3-hydroxypropyl)-2-methoxy-benzamido) thieno[3,2-c]pyridine-2-carboxamide] gave an EC50 of 0.4 µM. Compared with the last compound, the EC50 is about 2.2-fold higher.

`COc1ccc(-c2cc(CNS(C)(=O)=O)ccc2F)cc1C(=O)Nc1c(C(=O)Nc2ccc(F)c(C(F)(F)F)c2)sc2cc(C(F)(F)F)ccc12` [Example 17, N-(4-fluoro-3-(trifluoromethyl)phenyl)-3-(2′-fluoro-4-methoxy-5′-(methylsulfonamidomethyl)-[1,1′-biphenyl]-3-carboxamido)-6-(trifluoromethyl)benzo[b]thiophene-2-carboxamide] displayed an EC50 of 0.0103 µM. `COc1cc(F)c(C#CCO)cc1C(=O)Nc1c(C(=O)Nc2ccc(F)c(C(F)(F)F)c2)sc2cc(C(F)(F)F)ccc12` [Example 110, N-(4-fluoro-3-(trifluoromethyl)phenyl)-3-(4-fluoro-5-(3-hydroxyprop-1-yn-1-yl)-2-methoxy-benzamido)-6-(trifluoromethyl) benzo[b] thiophene-2-carboxamide]: the EC50 was found to be 0.144 µM. This EC50 is about 14-fold higher than that of the compound before.
